Laboratory results reported in patent US7648985B2, “Oxabispidine compounds and their use in the treatment of cardiac arrhythmias” (AstraZeneca AB, priority 2004, dated 2010).

Biological target: T1, HERG channel (Homo sapiens, UniProt Q12809)
T1 construct: expressed in transfected cells
Experiment: Test B: R^+-Efflux Assay for Detection of HERG Channel Blockers
Format: cell-based
Conditions: depolarisation-induced Rb+ efflux from Chinese hamster ovary cells stably expressing the HERG-channel; read-out: pIC50 for HERG channel blockade (converted)
Experimental: The IC50 value for HERG channel blockade was determined using a high throughput functional assay based on depolarisation-induced R^+-efflux from Chinese hamster ovary cells stably expressing the HERG-channel.
Cells were grown in Ham F12 (Life Technologies 31765-027) supplemented with 10% FBS and 0.6 mg/mL hygromycin B and were routinely passaged twice-weekly. For experimental studies, cells were plated at a density of 15,000 cells/well in Falcon, 384-well tissue culture-treated black-walled clear-bottomed plates and were thereafter incubated overnight at 37° C. in a cell culture incubator.
Following incubating overnight, cell plates were washed and a Rb^+-Load buffer (a physiological buffer containing Rb^+) was added. Cell plates were then incubated for 3 hours and were thereafter washed. Following this wash, the test compounds were added. The cell plates were then incubated for another 10 minutes and, following this incubation period, external K^+ concentration was increased in order to depolarize the cells and activate HERG channels. After a ten minute exposure period to the increased K^+ concentration, supernatants were transferred to new microplates for subsequent determination of Rb^+ content, using Atomic Absorption Spectrometry analysis. […]
Compound activity was expressed as: […]

T1 sequence (Q12809 whole entry): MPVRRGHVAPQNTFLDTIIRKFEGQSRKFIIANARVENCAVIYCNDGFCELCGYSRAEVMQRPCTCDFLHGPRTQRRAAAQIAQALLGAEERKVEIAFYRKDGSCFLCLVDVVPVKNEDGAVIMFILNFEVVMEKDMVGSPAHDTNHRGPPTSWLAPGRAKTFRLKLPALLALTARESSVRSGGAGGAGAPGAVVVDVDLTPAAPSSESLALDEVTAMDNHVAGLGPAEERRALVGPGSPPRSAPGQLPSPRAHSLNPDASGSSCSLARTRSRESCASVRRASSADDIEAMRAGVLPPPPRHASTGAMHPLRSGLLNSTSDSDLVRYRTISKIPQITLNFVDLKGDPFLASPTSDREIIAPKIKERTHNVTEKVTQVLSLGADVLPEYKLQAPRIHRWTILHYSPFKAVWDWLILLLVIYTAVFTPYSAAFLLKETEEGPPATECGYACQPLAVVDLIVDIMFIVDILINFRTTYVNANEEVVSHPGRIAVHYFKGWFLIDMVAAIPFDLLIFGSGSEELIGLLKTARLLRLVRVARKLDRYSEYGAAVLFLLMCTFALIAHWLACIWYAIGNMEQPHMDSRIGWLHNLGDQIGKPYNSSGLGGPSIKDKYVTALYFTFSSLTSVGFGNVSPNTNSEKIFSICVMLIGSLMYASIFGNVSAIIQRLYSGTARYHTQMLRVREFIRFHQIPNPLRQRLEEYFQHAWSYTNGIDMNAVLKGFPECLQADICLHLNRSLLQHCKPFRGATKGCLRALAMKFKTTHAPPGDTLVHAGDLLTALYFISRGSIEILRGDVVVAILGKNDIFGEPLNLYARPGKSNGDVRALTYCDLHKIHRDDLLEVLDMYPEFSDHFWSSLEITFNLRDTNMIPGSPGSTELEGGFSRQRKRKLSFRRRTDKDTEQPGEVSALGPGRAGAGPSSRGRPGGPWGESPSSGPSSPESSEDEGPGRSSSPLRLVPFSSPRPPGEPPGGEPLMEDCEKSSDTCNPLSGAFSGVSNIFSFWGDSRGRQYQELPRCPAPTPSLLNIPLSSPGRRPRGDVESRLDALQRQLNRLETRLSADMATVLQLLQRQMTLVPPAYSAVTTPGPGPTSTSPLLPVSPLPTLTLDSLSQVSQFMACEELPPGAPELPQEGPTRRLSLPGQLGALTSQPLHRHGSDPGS

Cc1noc(C)c1S(=O)(=O)NCCN1CC2CN(CCOc3ccc(C#N)cc3)CC(C1)O2 [Example 9, N-(2-{7-[2-(4-cyanophenoxy)ethyl]-9-oxa-3,7-diazabicyclo[3.3.1]non-3-yl}ethyl)-3,5-dimethylisoxazole-4-sulfonamide]
IC50: 3.24 µM
